Two compounds from ChEMBL document CHEMBL1143445, “Highly cytotoxic and neurotoxic acetogenins of the Annonaceae: new putative biological targets of squamocin detected by activity-based protein profiling” (Bioorg Med Chem Lett, 2008) can be followed below.

The source made the active and inactive calls. The rule behind the calls is not given here.

For data set [1], the target named is Protein disulfide-isomerase (Homo sapiens) (UniProt P07237). As to the kind of experiment: Binding affinity to disulfide isomerase in human Jurkat cells at 10 uM after 24 hrs by 2D electrophoresis. Format: cell-based.
The nature of data set [2]: Drug uptake in mitochondria of human HeLa cells assessed as intracellular localization after 6 hrs. It is filed as ADME.
For data set [3], the target named is Succinate dehydrogenase [ubiquinone] flavoprotein subunit, mitochondrial (Homo sapiens) (UniProt P31040). In words: Binding affinity to flavoprotein subunit of succinate dehydrogenase in human Jurkat cells at 10 uM after 24 hrs by 2D electrophoresis. It is filed as cell-based.
The target in data set [4] is COP9 signalosome complex subunit 7b (Homo sapiens) (UniProt Q9H9Q2). As to the kind of experiment: Binding affinity to COP9 signalosome complex subunit 7b in human Jurkat cells at 10 uM after 24 hrs by 2D electrophoresis. Format: cell-based.
Data set [5] deals with T1, Glutathione S-transferase omega-1 (Homo sapiens) (UniProt P78417).
T1 sequence (whole entry): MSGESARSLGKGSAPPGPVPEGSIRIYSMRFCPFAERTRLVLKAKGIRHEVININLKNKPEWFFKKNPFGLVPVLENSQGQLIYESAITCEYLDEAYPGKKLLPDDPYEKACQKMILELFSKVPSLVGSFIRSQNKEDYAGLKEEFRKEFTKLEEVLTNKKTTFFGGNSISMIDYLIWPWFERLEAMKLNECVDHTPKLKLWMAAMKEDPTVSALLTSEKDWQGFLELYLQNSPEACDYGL
In words: Binding affinity to glutathione transferase omega 1 in human Jurkat cells at 10 uM after 24 hrs by 2D electrophoresis. Format: cell-based.

Succinate dehydrogenase [ubiquinone] flavoprotein subunit, mitochondrial (Homo sapiens), sequence (P31040 whole entry): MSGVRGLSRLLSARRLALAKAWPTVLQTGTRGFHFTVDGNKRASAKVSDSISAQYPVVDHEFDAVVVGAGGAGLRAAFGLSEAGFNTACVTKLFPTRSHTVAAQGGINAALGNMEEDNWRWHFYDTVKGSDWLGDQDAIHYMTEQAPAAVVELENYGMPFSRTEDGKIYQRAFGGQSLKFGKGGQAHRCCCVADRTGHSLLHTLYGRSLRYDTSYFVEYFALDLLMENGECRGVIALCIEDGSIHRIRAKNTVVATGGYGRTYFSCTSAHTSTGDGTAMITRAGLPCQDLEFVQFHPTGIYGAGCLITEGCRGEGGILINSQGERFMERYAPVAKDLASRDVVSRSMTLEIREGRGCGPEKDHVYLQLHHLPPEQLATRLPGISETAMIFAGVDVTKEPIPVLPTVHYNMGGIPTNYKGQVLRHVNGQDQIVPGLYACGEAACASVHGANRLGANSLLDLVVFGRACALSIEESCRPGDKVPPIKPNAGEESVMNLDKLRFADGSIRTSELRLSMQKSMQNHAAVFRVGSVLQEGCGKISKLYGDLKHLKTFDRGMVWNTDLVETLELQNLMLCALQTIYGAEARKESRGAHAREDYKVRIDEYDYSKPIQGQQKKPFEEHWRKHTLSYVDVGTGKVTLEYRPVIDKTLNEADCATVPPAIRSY
Protein disulfide-isomerase (Homo sapiens), sequence (P07237 18-508 limits assumed): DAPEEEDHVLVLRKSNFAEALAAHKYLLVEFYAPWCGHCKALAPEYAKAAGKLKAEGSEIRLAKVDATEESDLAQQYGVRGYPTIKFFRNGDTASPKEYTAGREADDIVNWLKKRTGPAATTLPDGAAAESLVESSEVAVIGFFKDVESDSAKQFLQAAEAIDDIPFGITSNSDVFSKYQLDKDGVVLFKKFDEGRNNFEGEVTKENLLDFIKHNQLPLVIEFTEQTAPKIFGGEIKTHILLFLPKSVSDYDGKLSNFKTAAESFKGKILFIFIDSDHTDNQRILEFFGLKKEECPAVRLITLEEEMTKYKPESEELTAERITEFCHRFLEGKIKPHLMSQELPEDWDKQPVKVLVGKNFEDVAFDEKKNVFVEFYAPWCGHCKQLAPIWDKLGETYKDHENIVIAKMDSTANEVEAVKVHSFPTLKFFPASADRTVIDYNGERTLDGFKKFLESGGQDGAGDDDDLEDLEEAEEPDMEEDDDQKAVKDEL
COP9 signalosome complex subunit 7b (Homo sapiens), sequence (Q9H9Q2 whole entry, one chain of several): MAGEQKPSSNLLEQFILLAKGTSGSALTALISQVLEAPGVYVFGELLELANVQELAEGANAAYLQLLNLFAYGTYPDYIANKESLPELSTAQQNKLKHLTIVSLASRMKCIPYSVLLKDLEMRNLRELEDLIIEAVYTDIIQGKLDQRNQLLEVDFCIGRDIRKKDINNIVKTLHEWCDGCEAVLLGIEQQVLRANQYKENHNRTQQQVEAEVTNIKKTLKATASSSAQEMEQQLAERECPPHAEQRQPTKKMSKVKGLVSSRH

Turning to `CCCCCC[C@H](CCC[C@H](O)[C@H]1CC[C@@H]([C@H]2CC[C@@H]([C@H](O)CCCCCCCCCCCC3=C[C@H](C)OC3=O)O2)O1)n1cc(CCc2ccc3c(c2)Oc2cc(O)ccc2C32OC(=O)c3ccccc32)nn1` (stereo partly specified), the outcome in data set [1], in data set [3], in data set [4] and in data set [5] was Active. In addition, the Activity in data set [2] is given as 71%.

For the compound `CCCCCC[C@H](O)CCC[C@H](O)[C@H]1CC[C@@H]([C@H]2CC[C@@H]([C@H](O)CCCCCCCCCCCn3cc(COc4ccc5c(c4)Oc4cc(O)ccc4C54OC(=O)c5ccccc54)nn3)O2)O1` (stereo partly specified), the Activity in data set [2] amounted to 62%.
